Measurements: patent US20220056043A1, “NITROGEN-CONTAINING FUSED CYCLIC COMPOUND, PREPARATION METHOD THEREFOR AND USE THEREOF” (SICHUAN KELUN-BIOTECH BIOPHARMACEUTICAL CO., LTD., priority 2019, published 2022)

Columns and labels:
hNLRP3 inflammasome = target: T1, hNLRP3 inflammasome (Homo sapiens, UniProt Q96P20); assay: Agonistic effect on the expression of IL-1β in THP-1 cells after PMA-induced differentiation (HTRF); assay type: cell-based; details: IL-1β level, PMA-differentiated THP-1 cells, 6 hours
T1 construct: endogenous in cells; host or cells: THP-1 cells, PMA-differentiated
Procedure, shortened: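 THP-1 cells differentiated with 1 μM PMA for 24 h, then replated at 1×10^5 cells/well in RPMI 1640 with 2% FBS. Compounds added for 6 h at 37 °C, 5% CO2. Supernatant IL-1β measured by HTRF; EC50 from four-parameter variable-slope fit.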

hTLR7 = target: T2, hTLR7 (Homo sapiens, UniProt Q9NYK1); assay: Agonistic effect on hTLR7, HEK-hTLR7-NF-κB-Luciferase reporter cells; assay type: cell-based; details: 16 hours
T2 construct: host or cells: HEK-hTLR7-NF-κB-Luciferase cells
T2 sequence (Q9NYK1 27-1049): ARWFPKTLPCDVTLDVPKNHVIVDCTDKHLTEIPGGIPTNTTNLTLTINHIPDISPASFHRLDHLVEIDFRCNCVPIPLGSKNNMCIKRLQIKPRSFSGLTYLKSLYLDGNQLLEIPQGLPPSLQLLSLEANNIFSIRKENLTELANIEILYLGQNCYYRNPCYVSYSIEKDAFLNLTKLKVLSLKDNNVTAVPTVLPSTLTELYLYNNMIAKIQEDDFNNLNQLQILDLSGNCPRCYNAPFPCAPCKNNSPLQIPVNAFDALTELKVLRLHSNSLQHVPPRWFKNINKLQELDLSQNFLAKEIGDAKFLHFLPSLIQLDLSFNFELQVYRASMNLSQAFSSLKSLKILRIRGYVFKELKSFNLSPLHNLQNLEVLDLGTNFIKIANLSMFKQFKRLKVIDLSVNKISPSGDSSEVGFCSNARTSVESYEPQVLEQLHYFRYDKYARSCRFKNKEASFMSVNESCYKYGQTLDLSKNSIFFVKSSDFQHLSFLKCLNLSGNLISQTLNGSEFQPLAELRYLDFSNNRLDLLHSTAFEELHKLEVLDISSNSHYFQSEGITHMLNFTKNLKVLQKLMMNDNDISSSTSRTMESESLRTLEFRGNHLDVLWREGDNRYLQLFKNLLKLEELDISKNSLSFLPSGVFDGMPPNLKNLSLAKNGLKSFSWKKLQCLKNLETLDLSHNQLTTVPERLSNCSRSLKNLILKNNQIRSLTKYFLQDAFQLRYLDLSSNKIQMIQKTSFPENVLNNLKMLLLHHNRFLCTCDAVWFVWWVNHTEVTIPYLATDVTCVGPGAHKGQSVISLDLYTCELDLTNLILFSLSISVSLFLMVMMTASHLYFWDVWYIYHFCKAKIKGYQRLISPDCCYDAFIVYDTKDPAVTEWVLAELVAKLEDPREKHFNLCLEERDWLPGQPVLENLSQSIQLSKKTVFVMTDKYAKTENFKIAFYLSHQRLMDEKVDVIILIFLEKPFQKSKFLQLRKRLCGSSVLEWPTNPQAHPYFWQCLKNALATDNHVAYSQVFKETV
Procedure, shortened: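 HEK cells carrying human TLR7 and NF-κB-luciferase reporter, […] in DMEM with 10% FBS, exposed to compound for 16 h at 37 °C, 5% CO2; serves as specificity counterscreen to NLRP3 activity. Luminescence (RLU) after 5 min with luciferase reagent; EC50 by four-parameter variable-slope fit.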

T1 sequence (Q96P20 whole entry): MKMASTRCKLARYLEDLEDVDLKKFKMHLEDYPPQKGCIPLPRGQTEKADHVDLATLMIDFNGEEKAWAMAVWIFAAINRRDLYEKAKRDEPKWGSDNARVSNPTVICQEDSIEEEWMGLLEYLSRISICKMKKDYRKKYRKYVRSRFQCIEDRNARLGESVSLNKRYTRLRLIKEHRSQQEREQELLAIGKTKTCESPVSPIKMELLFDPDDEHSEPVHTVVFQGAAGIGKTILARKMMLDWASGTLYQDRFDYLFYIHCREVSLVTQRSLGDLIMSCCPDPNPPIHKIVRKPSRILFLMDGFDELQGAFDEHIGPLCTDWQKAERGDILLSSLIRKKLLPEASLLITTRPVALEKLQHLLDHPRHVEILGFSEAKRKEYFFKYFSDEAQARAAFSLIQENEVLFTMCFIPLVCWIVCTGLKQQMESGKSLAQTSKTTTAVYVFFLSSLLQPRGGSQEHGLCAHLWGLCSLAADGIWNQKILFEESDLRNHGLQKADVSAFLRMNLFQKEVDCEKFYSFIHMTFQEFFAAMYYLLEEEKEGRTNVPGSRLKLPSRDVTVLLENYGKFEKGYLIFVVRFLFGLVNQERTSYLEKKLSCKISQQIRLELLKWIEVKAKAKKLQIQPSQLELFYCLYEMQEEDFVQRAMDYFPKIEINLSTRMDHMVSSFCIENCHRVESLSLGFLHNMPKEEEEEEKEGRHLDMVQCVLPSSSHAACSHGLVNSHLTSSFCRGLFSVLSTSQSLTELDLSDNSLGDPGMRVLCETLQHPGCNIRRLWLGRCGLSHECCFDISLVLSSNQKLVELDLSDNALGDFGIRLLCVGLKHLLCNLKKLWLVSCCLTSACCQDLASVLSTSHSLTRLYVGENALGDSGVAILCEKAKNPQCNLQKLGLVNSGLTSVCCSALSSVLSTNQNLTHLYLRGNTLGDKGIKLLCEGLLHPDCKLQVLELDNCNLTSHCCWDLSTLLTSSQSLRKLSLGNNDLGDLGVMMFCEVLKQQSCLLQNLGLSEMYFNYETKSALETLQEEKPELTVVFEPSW

EC50 (hNLRP3 inflammasome) [µM]	EC50 (hTLR7) [nM]	Compound
0.54	> 100000	CC(C)(O)CNc1cc(N)nc2cc(-c3ccn[nH]3)sc12 [Compound 28, (1-(5-amino-2-(1H-pyrazol-5-yl)thieno[3,2-b]pyridin-7-yl)amino)-2-methyl-2-propanol]
0.16	> 100000	C[C@@H](O)CNc1cc(N)nc2cc(-c3ccn[nH]3)sc12 [Compound 29]
0.03	> 100000	Nc1cc(N[C@@H]2CC[C@@H](O)C2)c2sc(-c3ccn[nH]3)cc2n1 [Compound 30, (1R,3R)-3-((5-amino-2-(1H-pyrazol-5-yl)thieno[3,2-b]pyridin-7-yl)amino)cyclopentanol]
0.1	> 100000	Nc1cc(NC(CCO)c2ccccc2)c2sc(-c3ccn[nH]3)cc2n1 (stereo not shown) [Compound 123, 3-((5-amino-2-(1H-pyrazol-5-yl)thieno[3,2-b]pyridin-7-yl)amino)-3-phenyl-1-propanol]
0.05	> 100000	C[C@@H]1CN(CCNc2cc(N)nc3cc(-c4ccn[nH]4)sc23)C[C@@H](C)O1 [Compound 124, N^7-(2-((2R,6R)-2,6-dimethylmorpholino)ethyl)-2-(1H-pyrazol-5-yl)thieno[3,2-b]pyridine-5,7-diamine]
0.03	> 100000	C[C@@H](CCO)Nc1cc(N)nc2cc(-c3ccn[nH]3)sc12 [Compound 125, (S)-3-((5-amino-2-(1H-pyrazol-5-yl)thieno[3,2-b]pyridin-7-yl)amino)butanol]
0.35	> 100000	Nc1cc(NCC2CCC2)c2sc(-c3ccn[nH]3)cc2n1 [Compound 126, N^7-(cyclobutylmethyl)-2-(1H-pyrazol-5-yl)thieno[3,2-b]pyridine-5,7-diamine]
0.11	> 100000	CN(CCCO)c1cc(N)nc2cc(-c3ccn[nH]3)sc12 [Compound 127, 3-((5-amino-2-(1H-pyrazol-5-yl)thieno[3,2-b]pyridin-7-yl)(methyl)amino)-1-propanol]
0.11	> 100000	C[C@H]1CC[C@H](Nc2cc(N)nc3cc(-c4ccn[nH]4)sc23)CC1 [Compound 128, N^7-((1R,4R)-4-methylcyclohexyl)-2-(1H-pyrazol-5-yl)thieno[3,2-b]pyridine-5,7-diamine]
0.03	> 100000	C[C@]1(O)C[C@@H](Nc2cc(N)nc3cc(-c4ccn[nH]4)sc23)C1 [Compound 129, (1s,3s)-3-((5-amino-2-(1H-pyrazol-5-yl)thieno[3,2-b]pyridin-7-yl)amino)-1-methylcyclobutanol]
0.06	> 100000	C[C@H](Nc1cc(N)nc2cc(-c3ccn[nH]3)sc12)c1cccc(C(F)(F)F)c1 [Compound 131, (S)-2-(1H-pyrazol-5-yl)-N^7-(1-(3-(trifluoromethyl)phenyl)ethyl)thieno[3,2-b]pyridine-5,7-diamine]
3.48	> 100000	CC[C@@H](CO)Nc1cc(N)nc2cc(-c3ccn[nH]3)sc12 [Compound 132, (S)-2-((5-amino-2-(1H-pyrazol-5-yl)thieno[3,2-b]pyridin-7-yl)amino)-1-butanol]
0.58	> 100000	COC[C@@H](C)Nc1cc(N)nc2cc(-c3ccn[nH]3)sc12 [Compound 133, (R)—N^7-(1-methoxyprop-2-yl)-2-(1H-pyrazol-5-yl)thieno[3,2-b]pyridine-5,7-diamine]
0.03	> 100000	Cc1cccnc1CNc1cc(N)nc2cc(-c3ccn[nH]3)sc12 [Compound 134, N^7-((3-methylpyridin-2-yl)methyl)-2-(1H-pyrazol-5-yl)thieno[3,2-b]pyridine-5,7-diamine]
0.32	> 100000	Nc1cc(NCCN2CCCC2=O)c2sc(-c3ccn[nH]3)cc2n1 [Compound 135, 1-(2-((5-amino-2-(1H-pyrazol-5-yl)thieno[3,2-b]pyridin-7-yl)amino)ethyl)pyrrolidin-2-one]
0.05	> 100000	Nc1cc(NCC(CO)CO)c2sc(-c3ccn[nH]3)cc2n1 [Compound 136]

EC50 (hNLRP3 inflammasome) [µM]	EC50 (hTLR7) [nM]	Compound
0.95	> 100000	CNC(=O)CNc1cc(N)nc2cc(-c3ccn[nH]3)sc12 [Compound 137, 2-((5-amino-2-(1H-pyrazol-5-yl)thieno[3,2-b]pyridin-7-yl)amino)-N-methylacetamide]
0.2	> 100000	Nc1cc(NCC(=O)NC2CC2)c2sc(-c3ccn[nH]3)cc2n1 [Compound 138, 2-((5-amino-2-(1H-pyrazol-5-yl)thieno[3,2-b]pyridin-7-yl)amino)-N-cyclopropylacetamide]
0.07	> 100000	CN(CCO)c1cc(N)nc2cc(-c3ccn[nH]3)sc12 [Compound 139, 2-((5-amino-2-(1H-pyrazol-5-yl)thieno[3,2-b]pyridin-7-yl)(methyl)amino)ethanol]
0.5	> 100000	CCN(CCNc1cc(N)nc2cc(-c3ccn[nH]3)sc12)C(=O)Cc1cccc(C)c1 [Compound 140, N-(2-((5-amino-2-(1H-pyrazol-5-yl)thieno[3,2-b]pyridin-7-yl)amino)ethyl)-N-ethyl-2-(m-tolyl)acetamide]
0.03	> 100000	CC(C)CNc1cc(N)nc2cc(-c3ccn[nH]3)sc12 [Compound 141, N^7-isobutyl-2-(1H-pyrazol-5-yl)thieno[3,2-b]pyridin-5,7-diamine]
0.08	> 100000	Nc1cc(NC2CCC(F)(F)CC2)c2sc(-c3ccn[nH]3)cc2n1 [Compound 143, N^7-(4,4-difluorocyclohexyl)-2-(1H-pyrazol-5-yl)thieno[3,2-b]pyridin-5,7-diamine]
0.38	> 100000	CC(C)C[C@H](CO)Nc1cc(N)nc2cc(-c3ccn[nH]3)sc12 [Compound 144, (R)-2-((5-amino-2-(1H-pyrazol-5-yl)thieno[3,2-b]pyridin-7-yl)amino)-4-methyl-1-pentanol]
0.31	> 100000	CCC(=O)N(CC)CCNc1cc(N)nc2cc(-c3ccn[nH]3)sc12 [Compound 145, N-(2-((5-amino-2-(1H-pyrazol-5-yl)thieno[3,2-b]pyridin-7-yl)amino)ethyl)-N-ethylpropionamide]
0.29	> 100000	CCN(CCNc1cc(N)nc2cc(-c3ccn[nH]3)sc12)C(=O)C1CC1 [Compound 146, N-(2-((5-amino-2-(1H-pyrazol-5-yl)thieno[3,2-b]pyridin-7-yl)amino)ethyl)-N-ethylcyclopropyl formamide]
0.03	> 100000	Nc1cc(N[C@H]2CC[C@H](O)CC2)c2sc(-c3ccn[nH]3)cc2n1 [Compound 147, (1R,4R)-4-((5-amino-2-(1H-pyrazol-5-yl)thieno[3,2-b]pyridin-7-yl)amino)cyclohexanol]
0.008	> 100000	C[C@@H]1CN(c2cc(N)nc3cc(-c4ccn[nH]4)sc23)C[C@@H](C)O1 [Compound 148, 7-((2R,6R)-2,6-dimethylmorpholino)-2-(1H-pyrazol-5-yl)thieno[3,2-b]pyridine-5-amine]
0.04	> 100000	Cc1noc(C)c1CNc1cc(N)nc2cc(-c3ccn[nH]3)sc12 [Compound 149, N^7-((3,5-dimethylisoxazol-4-yl)methyl)-2-(1H-pyrazol-5-yl)thieno[3,2-b]pyridine-5,7-diamine]
0.16	> 100000	Nc1cc(NCCCN2CCCC2=O)c2sc(-c3ccn[nH]3)cc2n1 [Compound 150]
3.66	> 100000	Cc1c(-c2cc[nH]n2)sc2c(NCC(C)(C)CO)cc(N)nc12 [Compound 151]
2.75	> 100000	COCCNc1cc(N)nc2c(C)c(-c3cc[nH]n3)sc12 [Compound 152]

Compound	EC50 (hNLRP3 inflammasome) [µM]	EC50 (hTLR7) [nM]
Nc1cc(N[C@H]2[C@@H]3CNC[C@@H]32)c2sc(-c3ccn[nH]3)cc2n1 [Compound 142, N^7-((1R,5S,6S)-3-azabicyclo[3.1.0]hex-6-yl)-2-(1H-pyrazol-5-yl)thieno[3,2-b]pyridin-5,7-diamine]	0.14	> 100000
